Laboratory results published in patent US20230250096A1, “SUBSTITUTED PHENYL-1H-PYRROLO[2,3-c] PYRIDINE DERIVATIVES” (Janssen Pharmaceutica NV, priority 2021, published 2023).

Experiments:
[1] = molecular target: T1, menin/MLL (terbium chelate-labeled menin, FITC-MBM1 peptide) (Homo sapiens, UniProt O00255, T541A); test: Menin/MLL homogenous time-resolved fluorescence (HTRF) assay; type: binding; conditions: 30 min incubation
T1 construct: Menin (a.a 1-610-6xhis tag, 2.3 mg/mL in 20 mM Hepes)
T1 sequence (O00255 with tags, fused parts or gaps T541A): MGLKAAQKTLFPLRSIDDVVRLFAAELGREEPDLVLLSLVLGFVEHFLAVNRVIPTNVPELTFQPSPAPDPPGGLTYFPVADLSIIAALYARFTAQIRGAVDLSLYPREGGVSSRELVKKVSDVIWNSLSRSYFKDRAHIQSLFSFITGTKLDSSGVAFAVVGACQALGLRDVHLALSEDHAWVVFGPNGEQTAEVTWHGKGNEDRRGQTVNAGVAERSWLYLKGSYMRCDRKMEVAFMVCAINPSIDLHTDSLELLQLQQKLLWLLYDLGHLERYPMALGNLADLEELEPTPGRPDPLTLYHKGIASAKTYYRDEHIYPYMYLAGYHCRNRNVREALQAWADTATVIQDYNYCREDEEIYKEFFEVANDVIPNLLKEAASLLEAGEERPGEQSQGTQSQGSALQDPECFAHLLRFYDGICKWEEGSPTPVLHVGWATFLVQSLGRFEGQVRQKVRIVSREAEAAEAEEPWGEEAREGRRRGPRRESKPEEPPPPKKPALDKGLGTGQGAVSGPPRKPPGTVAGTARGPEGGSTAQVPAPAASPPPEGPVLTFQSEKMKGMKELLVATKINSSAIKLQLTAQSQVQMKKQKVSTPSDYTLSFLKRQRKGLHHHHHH
How it was run: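 Terbium-labeled menin (a.a. 1-610, His-tagged; […]) pre-incubated 30 min with compound, then 75 nM FITC-MBM1 peptide added for 15 min at ambient temperature in Tris pH 7.5 buffer, 0.5% DMSO. HTRF 520/490 nm ratio read; IC50 from 11-point four-fold titrations, typically from 10 μM.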

[2] = test system: MEIS1 mRNA expression; test: MEIS1 mRNA expression assay (Quantigene Singleplex) in MOLM14 cells; type: cell-based, human; conditions: 48 hours incubation
How it was run: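 MOLM14 cells, 3,750/well, exposed to increasing compound concentrations for 48 h. MEIS1 mRNA measured by QuantiGene Singleplex branched-DNA hybridization (lysis 45 min, hybridization 18–22 h, both 55 °C), normalized to RPL28. IC50 fitted to background-corrected fold change versus DMSO.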

Structure (SMILES)	IC50 [1]	IC50 ([2]; Homo sapiens, MOLM-14, 48 h)	IC50 [2]
CC(=O)N1C[C@@H]2[C@H](CN3CC[C@@H](Cc4cn(-c5ccc(F)cc5C(=O)N(C)C(C)C)c5cncc(C)c45)C3)[C@@H]2C1 [Compound 220]	0.932 nM	> 1000 nM	–
Cc1cncc2c1c(CC1CN(C[C@H]3CC[C@@H](C(=O)N(C)C)CC3)C1)cn2-c1ccc(F)cc1C(=O)N(C)C(C)C [Compound 221]	0.311 nM	109 nM	–
CC(=O)N1CC2CC1CC2N1CC[C@@H](Cc2cn(-c3ccc(F)cc3C(=O)N(C)C(C)C)c3cncc(C)c23)C1 (stereo partly drawn) [Compound 223]	0.239 nM	279 nM	–
CC(=O)N1CCC(CN2CCC(Cc3cn(-c4ccc(F)cc4C(=O)N(C)C(C)C)c4cncc(C)c34)C2C)CC1 (stereo not drawn) [Compound 226]	0.255 nM	–	269 nM
CC(=O)N1CCC(CN2CCC(Cc3cn(-c4ccc(F)cc4C(=O)N(C)C(C)C)c4cncc(C)c34)C2C)CC1 (stereo not drawn) [Compound 227]	0.655 nM	–	551 nM
CC(=O)N1CCC(CN2CCC(Cc3cn(-c4ccc(F)cc4C(=O)N(C)C(C)C)c4cncc(C)c34)C2C)CC1 (stereo not drawn) [Compound 229]	0.235 nM	–	93 nM
Cc1cncc2c1c(CC1CCN(CC3CCN(C(=O)N(C)C)CC3)CC1)cn2-c1ccc(F)cc1C(=O)N(C)C(C)C [Compound 235]	0.097 nM	14 nM	–
CNC(=O)[C@H]1CC[C@@H](CN2CC[C@H](Cc3cn(-c4ccc(F)cc4C(=O)N(C)C(C)C)c4cncc(C)c34)C2)CC1 [Compound 236]	0.086 nM	~98.9 nM	–
Cc1cncc2c1c(CC1CCN(CC3CCN(C(=O)C(C)(C)O)CC3)CC1)cn2-c1ccc(F)cc1C(=O)N(C)C(C)C [Compound 237]	0.149 nM	52 nM	–
CC(=O)N1CCC(CN2CC[C@@H](Cc3cn(-c4ccc(F)cc4C(=O)NC(C)C)c4cncc(C)c34)C2)CC1 [Compound 238]	1.94 nM	> 1000 nM	–
Cc1cncc2c1c(CC1(C)CCN(CC3CCOCC3)C1)cn2-c1ccc(F)cc1C(=O)N(C)C(C)C (stereo not drawn) [Compound 239]	0.305 nM	138 nM	–
CNC(=O)[C@H]1CC[C@@H](CN2CC(Cc3cn(-c4ccc(F)cc4C(=O)N(C)C(C)C)c4cncc(C)c34)C2)CC1 [Compound 241]	0.084 nM	173 nM	–
CC(=O)N1CCC(C)C(N2CC[C@@H](Cc3cn(-c4ccc(F)cc4C(=O)N(C)C(C)C)c4cncc(C)c34)C2)C1 (stereo partly drawn) [Compound 242]	0.811 nM	–	> 1000 nM
CC(=O)N1CCC(C)C(N2CC[C@@H](Cc3cn(-c4ccc(F)cc4C(=O)N(C)C(C)C)c4cncc(C)c34)C2)C1 (stereo partly drawn) [Compound 243]	0.097 nM	–	37 nM
Cc1cncc2c1c(C[C@H]1CCN(CC3CCN(C(=O)C(C)(C)O)CC3)C1)cn2-c1ccc(F)cc1C(=O)N(C)C(C)C [Compound 244]	0.101 nM	51 nM	–
Cc1cncc2c1c(C[C@H]1CCN(CC3CCN(C(=O)C4(O)CC4)CC3)C1)cn2-c1ccc(F)cc1C(=O)N(C)C(C)C [Compound 245]	0.185 nM	65 nM	–
Cc1cncc2c1c(C[C@@H]1CCN(CC3CCN(C(=O)C4(O)CC4)CC3)C1)cn2-c1ccc(F)cc1C(=O)N(C)C(C)C [Compound 249]	0.023 nM	7 nM	–
Cc1cncc2c1c(CC1CN(CC3CCN(C(=O)C(C)(C)O)CC3)C1)cn2-c1ccc(F)cc1C(=O)N(C)C(C)C [Compound 250]	0.076 nM	30 nM	–
Cc1cncc2c1c(CC1CN(CC3CCN(C(=O)C4(O)CC4)CC3)C1)cn2-c1ccc(F)cc1C(=O)N(C)C(C)C [Compound 251]	0.066 nM	83 nM	–
CCN(C(=O)c1cc(F)ccc1-n1cc(C[C@@H]2CCN(CC3CCN(C(C)=O)CC3)C2)c2c(C)cncc21)C(C)C [Compound 255]	0.102 nM	10 nM	–
CCN(C(=O)c1cc(F)ccc1-n1cc(C[C@H]2CCN(CC3CCN(C(C)=O)CC3)C2)c2c(C)cncc21)C(C)C [Compound 256]	0.073 nM	20 nM	–
CCN(C(=O)c1cc(F)ccc1-n1cc(C[C@@H]2CCN(CC3CCOCC3)C2)c2c(C)cncc21)C(C)C [Compound 257]	0.031 nM	7 nM	–
CC(=O)N1CCC(CN2CC[C@@H](Cc3cn(-c4ccc(F)cc4C(=O)N(C(C)C)C(C)C)c4cncc(C)c34)C2)CC1 [Compound 258]	0.021 nM	11 nM	–
CCc1cncc2c1c(C[C@@H]1CCN(CC3CCN(C(C)=O)CC3)C1)cn2-c1ccc(F)cc1C(=O)N(C)C(C)C [Compound 259]	0.031 nM	138 nM	–

Structure (SMILES)	IC50 [1]	IC50 ([2]; Homo sapiens, MOLM-14, 48 h)	IC50 [2]
CCc1cncc2c1c(C[C@H]1CCN(CC3CCN(C(C)=O)CC3)C1)cn2-c1ccc(F)cc1C(=O)N(C)C(C)C [Compound 260]	0.042 nM	~27.6 nM	–
Cc1cncc2c1c(CC1CN(CC3CCOCC3)C1)cn2-c1ccc(F)cc1C(=O)N1CCC12CCC2 [Compound 261]	0.213 nM	217 nM	–
Cc1cncc2c1c(CC1CN(CC3CCOCC3)C1)cn2-c1ccc(F)cc1C(=O)N1C2COCC1C2 [Compound 263]	0.258 nM	175 nM	–
Cc1cncc2c1c(CC1CN(CC3CCOCC3)C1)cn2-c1ccc(F)cc1C(=O)N(C)C1CC1 [Compound 265]	0.097 nM	46 nM	–
Cc1cncc2c1c(CC1CN(CC3CCOCC3)C1)cn2-c1ccc(F)cc1C(=O)N1CCC12COC2 [Compound 266]	0.349 nM	431 nM	–
COCC1CCCN1C(=O)c1cc(F)ccc1-n1cc(CC2CN(CC3CCOCC3)C2)c2c(C)cncc21 (stereo not drawn) [Compound 267]	0.24 nM	166 nM	–
Cc1cncc2c1c(CC1CN(CC3CCOCC3)C1)cn2-c1ccc(F)cc1C(=O)N(C)C1CCOC1 (stereo not drawn) [Compound 269]	1.7 nM	18 nM	–
Cc1cncc2c1c(CC1CN(CC3CCOCC3)C1)cn2-c1ccc(F)cc1C(=O)N1CCC(O)C1C (stereo not drawn) [Compound 271]	0.368 nM	288 nM	–
Cc1cncc2c1c(CC1CN(CC3CCOCC3)C1)cn2-c1ccc(F)cc1C(=O)N1CCC(O)C1(C)C (stereo not drawn) [Compound 272]	0.31 nM	~270 nM	–
Cc1cncc2c1c(CC1CN(CC3CCOCC3)C1)cn2-c1ccc(F)cc1C(=O)N1CC2(O)CC1C2 [Compound 273]	1.08 nM	> 1000 nM	–
Cc1cncc2c1c(CC1CN(CC3CCOCC3)C1)cn2-c1ccc(F)cc1C(=O)N(C)[C@H]1C[C@@H](O)C1 [Compound 274]	2.42 nM	> 1000 nM	–
Cc1cncc2c1c(CC1CN(CC3CCOCC3)C1)cn2-c1ccc(F)cc1C(=O)N(C)[C@H]1C[C@H](O)C1 [Compound 275]	0.945 nM	> 1000 nM	–
Cc1cncc2c1c(CC1CN(CC3CCOCC3)C1)cn2-c1ccc(F)cc1C(=O)N(C)C1(CO)CCC1 [Compound 276]	0.532 nM	~462 nM	–
Cc1cncc2c1c(CC1CN(CC3CCOCC3)C1)cn2-c1ccc(F)cc1C(=O)N(C)C1(CO)CC1 [Compound 277]	0.481 nM	~502 nM	–
Cc1cncc2c1c(CC1CN(CC3CCOCC3)C1)cn2-c1ccc(F)cc1C(=O)N(CCO)C1CC1 [Compound 278]	0.323 nM	342 nM	–
Cc1cncc2c1c(CC1CN(CC3CCOCC3)C1)cn2-c1ccc(F)cc1C(=O)N1CCCCC1C (stereo not drawn) [Compound 280]	0.077 nM	51 nM	–
Cc1cncc2c1c(CC1CN(CC3CCOCC3)C1)cn2-c1ccc(F)cc1C(=O)N1C[C@H](O)C[C@@H]1C [Compound 282]	3.27 nM	> 1000 nM	–
CNC(=O)c1cccc(CN2CC(Cc3cn(-c4ccc(F)cc4C(=O)N(C)C(C)C)c4cncc(C)c34)C2)c1 [Compound 283]	0.61 nM	440 nM	–
Cc1ccc(CN2CC(Cc3cn(-c4ccc(F)cc4C(=O)N(C)C(C)C)c4cncc(C)c34)C2)nn1 [Compound 284]	4.19 nM	~2360 nM	–
Cc1cc(CN2CC(Cc3cn(-c4ccc(F)cc4C(=O)N(C)C(C)C)c4cncc(C)c34)C2)[nH]n1 [Compound 285]	1.49 nM	~1330 nM	–
Cc1cncc2c1c(CC1CN(CC3(C)COC3)C1)cn2-c1ccc(F)cc1C(=O)N(C)C(C)C [Compound 286]	0.046 nM	59 nM	–
Cc1cncc2c1c(CC1CN(CC3CCOC3)C1)cn2-c1ccc(F)cc1C(=O)N(C)C(C)C (stereo not drawn) [Compound 287]	0.034 nM	26 nM	–
Cc1cncc2c1c(CC1CN(CC3CCCO3)C1)cn2-c1ccc(F)cc1C(=O)N(C)C(C)C (stereo not drawn) [Compound 288]	0.059 nM	43 nM	–
Cc1cncc2c1c(CC1CN(CC3CCCOC3)C1)cn2-c1ccc(F)cc1C(=O)N(C)C(C)C (stereo not drawn) [Compound 289]	0.055 nM	31 nM	–
